Data: PMC9562916, “Investigation of the Phenolic Component Bioavailability Using the In Vitro Digestion/Caco-2 Cell Model, as well as the Antioxidant Activity in Chinese Red Wine” (Foods, 2022)
Where two headings read alike, the source gives them in different places. Marks after values point to notes of the source that are not given here.

What was measured:
[1] = PC content of red wine before and after in vitro simulated gastrointestinal digestion (HPLC); type: in vitro ADME; settings: after simulated gastrointestinal digestion
Method: The digestion procedure was carried out by adapting the method of Brodkorb et al. and Gómez et al.. […] One milliliter (50 units/mL) of porcine amylase was prepared in a 15 mM Na₃PO₄ buffer solution (pH adjusted to 6.8) containing 1.5 mM CaCl2, and it was added to the red wine solution. After 5 min, 4.5 mL of 0.12 M HCl was added to the mixture to adjust the pH to 2.4. One milliliter of porcine pepsin (0.02 mg/L) was dissolved in a 20 mM HCl solution. The mixture was then maintained at 37 °C for 120 min. The digestion mixture was then centrifuged at 8000× g for 15 min to obtain samples from the gastric digestion phase. […] The mixture was incubated at pH 6.5 at 37 °C for 3 h before being centrifuged. The extracts of the intestinal phase were the supernatants. The same operation was done three times, and each sample was stored in a refrigerator (−20 °C) immediately for further analysis.
The Pati method was adopted, with slight modifications, to measure the content of the PCs. The Agilent 1100 series HPLC instrument was used; it was equipped with a degasser, quaternary pump solvent delivery, a DAD system, and a single quadrupole mass detector coupled with an electrospray ionization LC–MS interface. Briefly, th samples were injected into a Zorbax SB C18 reversed-phase column (5 µm,150 × 2.1 mm, Agilent Technologies, Santa Clara, CA, USA) using an autosampler after filtering through 0.45 µm cellulose acetate syringe filters. The column temperature was kept at 30 °C, the injection volume was 10 µL, and the flow rate was 0.3 mL/min. The eluents were water and formic acid in a 99:1 (v/v) (A) ratio and 100% acetonitrile (B). […] The MS configuration was as follows: ESI, negative ion mode, nebulizer pressure of 30 psi, a dry gas flow rate of 10 mL/min, dry gas temperature of 350 °C, and a scan rate of 100~1200 m/z. PCs were determined according to their retention times, UV/VIS spectra, and high-resolution MS spectra, in addition to a comparison with the standards. […] Putative annotations were made using spectral features and literature information on the chromatographic properties and mass spectra records from the metabolome database. A standard curve was drawn using methanol solutions with different concentrations as the standards. The limits of detection and quantitation were calculated according to the signal-to-noise ratio (limit of detection: signal-to-noise ratio ≥ 3; limit of quantitation: signal-to-noise ratio ≥ 10). […] PCs All of the samples were determined in triplicate.

Caco-2 cell monolayer = assay: Caco-2 transepithelial transport assay of digested red wine; type: in vitro ADME, human; settings: digested sample, basolateral side of Caco-2 monolayer
Method: (§1) Caco-2 cells were inoculated following the method of Hubatsch et al. […] Briefly, a 5% v/v of CO2 incubator at 37 °C was used to house the cells. […] Caco-2 cells were sub-cultured when they reached 80-90% of the adherent growth by treating them with a 0.05% v/v of trypsin-EDTA solution. The culture between passages 35 and 40 was used for the following experiment. Transport experiments were performed according to the method of Wu et al. with slight modifications. First, 1.0 × 10^5 Caco-2 cells were inoculated onto 12 mm transparent cell culture plates (Transwell). Media were carefully injected into the apical (0.5 mL) and basolateral (1.5 mL) sides of the Transwell plates. The cell culture medium had to be replaced every other day until the cells formed a monolayer. The integrity and transport ability of the Caco-2 cell monolayer were evaluated by measuring the trans-epithelial electrical resistance (TEER) with a MilliCell voltammeter (Millicell ERS-2, Merck Millipore, Billerica, MA, USA). […] When the cell activity exceeded 0.9, a transport experiment was conducted. The apical side was injected with a digested red wine sample (0.5 mL) and was thoroughly mixed with […] Balanced Salt Solution (HBSS) buffer solution. […] The cells were then cultured in a 37 °C, 5% CO2 incubator. Then, 0.25 mL samples were separately taken from the basolateral side of the monolayer. An equal volume of HBSS buffer was then added every half hour from the beginning of the culture until the end of the culture at 6 h. The collected samples were subsequently filtered and placed in the sample bottle for further HPLC analysis. This experiment was repeated several times to collect enough samples for the next antioxidant test. […] The Agilent 1100 series HPLC instrument was used; it was equipped with a degasser, quaternary pump solvent delivery, a DAD system, and a single quadrupole mass detector coupled with an electrospray ionization LC-MS interface. […] The column temperature was kept at 30 °C, the injection volume was 10 μL, and the flow rate was 0.3 mL/min. The eluents were water and formic acid in a 99:1 (v/v) (A) ratio and 100% acetonitrile (B). The gradient elution procedure was as follows: (1) 3% B solvent at 0 min, (2) 3 to 16% B solvent at 10 min, (3) 16 to 20% B solvent at 30 min, and (4) 20% B solvent maintained until the procedure was completed. The MS configuration was as follows: ESI, negative ion mode, nebulizer pressure of 30 psi, a dry gas flow rate of 10 mL/min, dry gas temperature of 350 °C, and a scan rate of 100~1200 m/z. PCs were determined according to their retention times, UV/VIS spectra, and high-resolution MS spectra, in addition to a comparison with the standards. […] If a standard was unavailable, a structurally related compound was used. Putative annotations were made using spectral features and literature information on the chromatographic properties and mass spectra records from the metabolome database. A standard curve was drawn using methanol solutions with different concentrations as the standards. […] PCs All of the samples were determined in triplicate.

[2] = as above; type: in vitro ADME, human; settings: human, Caco-2, apical to basolateral
Method: as §1

## C[C@@H]1O[C@@H](O[C@H]2C(=O)c3c(O)cc(O)cc3O[C@@H]2c2ccc(O)c(O)c2)[C@H](O)[C@H](O)[C@H]1O [Astilbin]
[1]; Cabernet red wine
  PC Contents, Cabernet, After Digestion: 28.22 ± 1.07 ^b mg/L
[1]; Helanshan red wine
  PC Contents, Helanshan, After Digestion: 24.63 ± 1.13 ^b mg/L
[1]; Tianzhu red wine
  PC Contents, Tianzhu, After Digestion: 25.36 ± 1.32 ^b mg/L
Caco-2 cell monolayer; Cabernet red wine
  PC Contents, Cabernet, Transmembrane: 1.11 ± 0.05 ^a mg/L
Caco-2 cell monolayer; Helanshan red wine
  PC Contents, Helanshan, Transmembrane: 0.93 ± 0.04 ^a mg/L
Caco-2 cell monolayer; Tianzhu red wine
  PC Contents, Tianzhu, Transmembrane: 5.05 ± 0.19 ^a mg/L
[2]; digested Cabernet red wine, read-out: Apparent Permeability Coefficients, Cabernet
  Papp at 6 h: 2.46 ± 0.23 ×10⁻⁶ cm/s
[2]; digested Helanshan red wine, read-out: Apparent Permeability Coefficients, Helanshan
  Papp at 6 h: 2.37 ± 0.34 ×10⁻⁶ cm/s
[2]; digested Tianzhu red wine, read-out: Apparent Permeability Coefficients, Tianzhu
  Papp at 6 h: 2.41 ± 0.26 ×10⁻⁶ cm/s
